Counter-ions that a name gives are not always drawn. Like-named read-outs stand apart in the source and are kept apart here.
How the values were obtained:
SUDHL10 [1] = assay: Induction of caspase-3/7 activity (Caspase-Glo 3/7), SUDHL10; format: cell-based; settings: caspase-3/7 induction, SUDHL10 cells, 3 h treatment, median
Outline: (§1)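 A 3 h, 37 °C compound incubation precedes the Caspase-Glo 3/7 read. After subtracting medium-only signal, EC50s are fitted against the reference compound's maximal caspase induction.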

A2780 = assay: Anti-proliferative effect (CellTiter-Glo, 72 h), A2780; format: cell-based; settings: A2780 cells, median, read-out: IC50 antiproliferation assay A2780 [M] (median)
Outline: (§2)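 Plate cells alongside a separate day 0 reference plate. Read the reference plate at once with CellTiter-Glo. Incubate treated cells 72 h at 37 °C, then read them the same way by luminescence.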

SUDHL10 [2] = assay: Induction of cytotoxicity (CellTiter-Glo, 5 h), SUDHL10
SUDHL5 [3] = assay: Induction of caspase-3/7 activity (Caspase-Glo 3/7), SUDHL5; format: cell-based; settings: caspase-3/7 induction, SUDHL5 cells, 3 h treatment, median
Outline: as §1

SUDHL5 [4] = assay: Anti-proliferative effect (CellTiter-Glo, 72 h), SUDHL5; format: cell-based; settings: SUDHL5 cells, antiproliferation, median, read-out: Antiproli SUDHL5 [M] (median)
Outline: as §2

MCL-1 = MCL-1 (Homo sapiens, UniProt Q07820); assay: Protein-protein interaction assay MCL-1/Noxa BH3 peptide (MCL-1 assay), TR-FRET; format: binding; settings: MBP-MCL-1 / Noxa BH3-derived peptide, median
Outline: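 Steady-state competition, MCL-1/Noxa BH3, TR-FRET readout; 1 nM MBP-MCL-1, 11-point dose series 0.1 nM–20 μM; overnight 4 °C equilibration; 4-parameter IC50.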

SUDHL5 [5] = assay: Induction of cytotoxicity (CellTiter-Glo, 5 h), SUDHL5
[6] = Homo sapiens, SU-DHL10, 5 h, read-out: Cytotox SUDHL10 [M] (median), SUDHL10 cells, cytotoxicity induction, CellTiter-Glo, 5 h incubation, median
[7] = Homo sapiens, SU-DHL-5, 72 h, 72 h incubation
[8] = Homo sapiens, SU-DHL-5, 5 h, read-out: Cytotox SUDHL5 [M] (median), SUDHL5 cells, cytotoxicity induction, CellTiter-Glo, 5 h incubation, median
[9] = Homo sapiens, SU-DHL10, 5 h, read-out: Cytotox SUDHL10 [M] (median), SUDHL10 cells, cytotoxicity induction, CellTiter-Glo, 5 h, median
[10] = Homo sapiens, SU-DHL-5, 72 h, 72 h
[11] = Homo sapiens, SU-DHL-5, 5 h, read-out: Cytotox SUDHL5 [M] (median), SUDHL5 cells, cytotoxicity induction, CellTiter-Glo, 5 h, median
[12] = read-out: Cytotox SUDHL10 [M] (median), SUDHL10 cells, cytotoxicity induction, CellTiter-Glo, 5 h incubation, median
[13] = read-out: Cytotox SUDHL5 [M] (median), SUDHL5 cells, cytotoxicity induction, CellTiter-Glo, 5 h incubation, median

MCL-1, sequence (Q07820 whole entry): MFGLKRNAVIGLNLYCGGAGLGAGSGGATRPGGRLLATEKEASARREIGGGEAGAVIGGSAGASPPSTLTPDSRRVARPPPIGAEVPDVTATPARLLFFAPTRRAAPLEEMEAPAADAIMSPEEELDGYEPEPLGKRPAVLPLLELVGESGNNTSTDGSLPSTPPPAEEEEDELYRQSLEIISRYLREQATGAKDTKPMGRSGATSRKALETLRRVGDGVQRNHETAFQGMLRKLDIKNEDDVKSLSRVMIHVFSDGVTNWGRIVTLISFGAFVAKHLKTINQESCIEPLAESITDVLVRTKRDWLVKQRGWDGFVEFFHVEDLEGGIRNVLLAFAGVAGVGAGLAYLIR

Row | SMILES | EC50 (SUDHL10 [1]; Homo sapiens, SU-DHL10, 3 h) [µM] | IC50 (A2780; Homo sapiens, A2780, 72 h) [M] | IC50 (SUDHL10 [2]; [6]) [M] | EC50 (SUDHL5 [3]; Homo sapiens, SU-DHL-5, 3 h) [µM] | IC50 (SUDHL5 [4]; [7]) [M] | IC50 (MCL-1) [µM] | IC50 (SUDHL5 [5]; [8]) [M] | IC50 (SUDHL10 [2]; [9]) [M] | IC50 (SUDHL5 [4]; [10]) [M] | IC50 (SUDHL5 [5]; [11]) [M] | EC50 (SUDHL10 [1]) [µM] | IC50 (A2780) [M] | IC50 (SUDHL10 [2]; [12]) [M] | EC50 (SUDHL5 [3]) [µM] | IC50 (SUDHL5 [4]; 72 h incubation) [M] | IC50 (SUDHL5 [5]; [13]) [M]
1 | Cc1nn(C)c2c1-c1cccc3c(CCCOc4cccc5cc(F)ccc45)c(C(=O)O)n(c13)CCCOC2 (single isomer, unassigned; enantiomer 2) [Example 048, 1-{3-[(6-fluoronaphthalen-1-yl)oxy]propyl}-9,11-dimethyl-5,6,8,9-tetrahydro-4H-pyrazolo[4′,3′:8,9][1,5]oxazecino[7,6,5-hi]indole-2-carboxylic acid-N-ethylethanamine Salt (Enantiomer 2)] | 17.8 | 1.01e-05 | 1.71e-05 | 13.2 | 4.84e-06 | 0.0136 | 1.19e-05 |  |  |  |  |  |  |  |  | 
2 | Cc1c2c(nn1CCN(C)C)COCCCCn1c(C(=O)O)c(CCCOc3cccc4ccccc34)c3cccc-2c31 (racemic) [Example 243, (rac)-2-[2-(dimethylamino)ethyl]-3-methy-7-[3-(naphthalen-1-yloxy)propyl]-2,10,11,12,13,15-hexahydropyrazolo[4′,3′:9,10][1,6]oxazacycloundecino[8,7,6-hi]indole-8-carboxylic Acid Trifluoroacetic Acid Salt] | 16.5 | 1.43e-05 | 1.46e-05 | 7.09 | 1.11e-05 | 0.00778 | 6.44e-06 |  |  |  |  |  |  |  |  | 
3 | CN1CCN(Cc2c3c(nn2C)COC/C=C\Cn2c(C(=O)O)c(CCCOc4cccc5ccccc45)c4cccc-3c42)CC1 (racemic) [Example 358, (rac)-(11 Z)-2-methyl-3-[(4-methylpiperazin-1-yl)methyl]-7-[3-(naphthalen-1-yloxy)propyl]-2,10,13,15-tetrahydropyrazolo[4′,3′:9,10][1,6]oxazacycloundecino[8,7,6-hi]indole-8-carboxylic Acid] | > 33 | 1.2e-05 |  | > 33 |  | 0.0173 |  | > 3.3e-05 | 2.06e-05 | > 3.3e-05 |  |  |  |  |  | 
4 | CCc1nn(C)c2c1-c1c(C)ccc3c(C(C)CCOc4cccc5cc(F)ccc45)c(C(=O)O)n(c13)CCCCOC2 (single isomer, unassigned) [Example 263, 3-ethyl-7-{4-[(6-fluoronaphthalen-1-yl)oxy]butan-2-yl}-1,4-dimethyl-1,10,11,12,13,15-hexahydropyrazolo[4′,3′:9,10][1,6]oxazacycloundecino[8,7,6-hi]indole-8-carboxylic Acid] |  |  |  |  |  | 0.926 |  |  |  |  | > 33 | 1.01e-05 | 2.79e-05 | > 33 | 4.61e-06 | > 3.3e-05
5 | Cc1c2c(nn1C)COCCCn1c(C(=O)O)c(CCCOc3cccc4ccccc34)c3cccc-2c31 (single isomer, unassigned; enantiomer 1) [Example 064, 10,11-dimethyl-1-[3-(naphthalen-1-yloxy)propyl]-5,6,8,10-tetrahydro-4H-pyrazolo[4′,3′:8,9][1,5]oxazecino[7,6,5-h]indole-2-carboxylic acid-N-ethylethanamine Salt (Enantiomer 1)] | 17.5 | 3.14e-05 | 2.59e-05 |  |  | 0.0115 |  |  |  |  |  |  |  | 4.98 | 1.12e-05 | 7.53e-06
6 | Cc1nn(C)c2c1-c1cccc3c(CCCOc4cccc5ccccc45)c(C(=O)O)n(c13)CCCN(c1ccc(N3CCN(S(=O)(=O)N(C)C)CC3)cc1)C2 (single isomer, unassigned; enantiomer 1) [Example 1-106, 7-{4-[4-(Dimethylsulfamoyl)piperazin-1-yl]phenyl}-9,11-dimethyl-1-[3-(1-naphthyloxy)propyf]-4,5,6,7,8,9-hexahydropyrazolo[3′,4′:7,8][1,5]diazecino[9,10,1-hi]indole-2-carboxylic Acid (Enantiomer 1)] |  | 8.83e-06 | 1.89e-05 |  | 4.15e-06 | 0.0163 |  |  |  |  | 9.37 |  |  | 11.5 |  | 1.49e-05
7 | Cc1ccc2c(C(C)CCOc3cccc4ccccc34)c(C(=O)O)n3c2c1-c1c(nn(C)c1C)COCCCC3 (racemic) [Example 362, 11,12,13-trimethyl-1-(4-(naphthalen-1-yloxy)butan-2-yl)-4,5,6,7,9,11-hexahydropyrazolo[4′,3′:9,10][1,6]oxaazacycloundecino[8,7,6-hi]indole-2-carboxylic Acid (Mixture of Stereoisomers)] | > 33 | 1.41e-05 |  | 26.2 |  | 0.0187 |  | > 3.3e-05 | 1.27e-05 | 2.72e-05 |  |  |  |  |  | 
8 | Cc1nn(C)c2c1-c1cccc3c(CCCOc4cccc5ccccc45)c(C(=O)O)n(c13)CCCOC2 (single isomer, unassigned; enantiomer 2) [Example 045, 9,11-dimethyl-1-[3-(naphthalen-1-yloxy)propyl]-5,6,8,9-tetrahydro-4H-pyrazolo[4′,3′:8,9][1,5]oxazecino[7,6,5-hi]indole-2-carboxylic acid-N-ethylethanamine Salt (Enantiomer 2)] |  |  |  |  |  | 0.0259 |  |  |  |  | 32.7 | 2.78e-05 | 2.89e-05 | > 33 | 5.73e-06 | 2.59e-05
9 | CCc1nn(C)c2c1-c1c(C)ccc3c(C(C)CCOc4cccc5ccccc45)c(C(=O)O)n(c13)CCCCOC2 (racemic) [Example 271, 3-ethyl-1,4-dimethyl-7-[4-(naphthalen-1-yloxy)butan-2-yl]-1,10,11,12,13,15-hexahydropyrazolo[4′,3′:9,10][1,6]oxazacycloundecino[8,7,6-hi]indole-8-carboxylic Acid] | > 33 | 1.83e-05 | > 3.3e-05 | > 33 | 1.27e-05 | 0.0306 | 3.28e-05 |  |  |  |  |  |  |  |  | 
10 | Cc1c2c(nn1CC(F)(F)F)COCCCCn1c(C(=O)O)c(CCCOc3cccc4ccccc34)c3cccc-2c31 [Example 241, 3-methyl-7-[3-(naphthalen-1-yloxy)propyl]-2-(2,2,2-trifluoroethyl)-210,11,12,13,15-hexahydropyrazolo[4′,3′:9,10][1,6]oxazacycloundecino[8,7,6-hi]indole-8-carboxylic Acid] | 17.1 | 2.89e-05 | 1.92e-05 | 3.75 | 9.89e-06 | 0.00751 | 4.64e-06 |  |  |  |  |  |  |  |  | 
11 | Cc1nn(CC(F)(F)F)c2c1-c1cccc3c(CCCOc4cccc5c4CCCC5)c(C(=O)O)n(c13)CCCCOC2 (single isomer, unassigned; enantiomer 1) [Example 162, 3-methyl-7-[3-(5,6,7,8-tetrahydronaphthalen-1-yloxy)propyl]-1-(2,2,2-trifluoroethyl)-1,10,11,12,13,15-hexahydropyrazolo[4′,3′:9,10][1,6]oxazacycloundecino[8,7,6-hi]indole-8-carboxylic acid-N-ethylethanamine Salt (Enantiomer 1)] | 23.2 | 2.55e-05 | 2.3e-05 |  |  | 0.00761 |  |  |  |  |  |  |  | 5.35 | 6.96e-08 | 8.92e-06
12 | Cc1nn(CC(F)(F)F)c2c1-c1cccc3c(CCCOc4cccc5ccccc45)c(C(=O)O)n(c13)CCCCOC2 (racemic) [Example 109, (rac)-3-methyl-7-[3-(naphthalen-1-yloxy)propyl]-1-(2,2,2-trifluoroethyl)-1,10,11,12,13,15-hexahydropyrazolo[4′,3′:9,10][1,6]oxazacycloundecino[8,7,6-hi]indole-8-carboxylic acid] | > 33 | 1.9e-05 | > 3.3e-05 | > 33 | 1.56e-05 | 0.0111 | > 3.3e-05 |  |  |  |  |  |  |  |  | 
